Read-outs that look alike come from different tables or passages of the source.
Legend:
APP51/16 transgenic mice = test: Chronic 6-week treatment of APP51/16 mice: APP metabolites, Aβ deposition and neuroinflammation; type: in vivo, mouse; conditions: for CSF Aβ40 reduction / CSF Aβ42 reduction: 100 μmol/kg/d 6 weeks
Experimental: Frozen rodent forebrains were homogenized in 9 volumes of ice-cold Tris-buffered saline (pH 7.4) containing Complete protease inhibitor cocktail (Roche Diagnostics, Penzberg, Germany) using a Sonifier 450 (Branson) and stored in aliquots at -80 °C. Triton X-100 soluble Aβ was extracted by mixing 50 μl 2 % Triton X-100 with 50 μl homogenate, incubating for 15 min on ice with vortexing, followed by ultracentrifugation at 100000xg for 15 min. The clear supernatant was diluted to a final forebrain dilution of 1:100 and used for analysis. For the extraction of insoluble amyloid peptides, 50 μl forebrain homogenate was mixed with 117 μl of 100 % formic acid and stored on ice for 15 min with vortexing. Samples were neutralized with 950 μl 1 M Tris base, containing Complete protease inhibitor cocktail (Roche, Basle, Switzerland) and stored overnight at room temperature. The supernatant after 15 min centrifugation at 14000 rpm was used for analysis.
Aβ38, 40 and 42 were determined using the electro-chemiluminescence immuno assay kits from Meso Scale Discovery (Rockville, MD, USA) in either singlet or triplex format. Samples and standards were prepared according to the manufactures protocols. The kit based on the antibody 4G8 was used for rat forebrain and CSF samples, and kits based on 6E10 were used for dog CSF or plasma and APP51/16 brain and CSF samples. Soluble APPα and sAPPβ from APP51/16 mice were determined from the 100000xg supernatant and analyzed with Meso Scale Discovery commercial kits. C-terminal fragments C83 and C99 were determined from Western blots. Forebrain homogenates dephosphorylated with lambda protein phosphatase as described and run on a 10 % Tris-bicine gel with 8 M urea. After transfer to Immobilon P membranes (Bio-Rad Bedford MA USA), bands were probed with APP C8 antibody (recognizing the C-terminus of APP) and detected with goat anti-mouse IgG Fab fragment AlexaFluor680 (Invitrogen). The same gel was used to visualize Aβ1-38, 1-40, and 1-42 using the N-terminal antibody beta1 and goat anti rabbit IgG IRdye 800CW (Odyssey). Full-length human APP was detected using an in house immunoassay based on the MSD ECL system as described.

[1] = Pharmacokinetics after i.v. and oral application, mouse
Experimental: (§1) Pharmacokinetic studies used male Sprague Dawley rats, C57BL6 mice and Beagle dogs, obtained from Charles River (France, rodents) and Marshall (Italy, dogs). […] Blood was collected i.v., by sublingual bleeding or at sacrifice whereas a serial blood sampling allowed obtaining individual PK profiles in these species. Blood samples were taken between 5 min (intravenous) and 15 min (oral) up to 24 h (mice), 48 h (rat) and 408 h (dog).
(§2) The absorption and disposition parameters were estimated by a non-compartmental analysis of the mean blood concentration (n = 3 mice) or individual concentration (rats, dogs) versus time profile after oral and intravenous administration.

wtAPP CHO cells = test: Release of APP metabolites from wild-type human APP751 CHO cells; conditions: Cricetulus griseus, 24 h
[2] = Blood pharmacokinetics and brain penetration in the rat, 30 μmol/kg oral; type: in vivo; conditions: for Cmax / AUC(0-t): male, Sprague Dawley, 30 umol/kg
Source text: In vivo blood pharmacokinetics and brain penetration was investigated in the rat.

[3] = Dissociation constant (pKa); type: physicochemical
[4] = Pharmacokinetics after i.v. and oral application, beagle dog
Experimental: as §1, §2

[5] = approximate area under the effect curve, 0, 4, 24 h after last dose

## Cc1cc(C#N)cnc1C(=O)Nc1ccc(F)c([C@]2(C)CO[C@@](C)(C(F)(F)F)C(N)=N2)c1 [NB-360]
APP51/16 transgenic mice; 4 h after the dose
  CSF Aβ40 reduction: > 90%
  CSF Aβ42 reduction: > 90%
APP51/16 transgenic mice; 24 h
  CSF Aβ40 reduction: about 60%
  CSF Aβ42 reduction: about 60%
APP51/16 transgenic mice; 4 h after the last dose
  C99 reduction in Triton TX-100 forebrain extract: about 80%
  sAPPβ reduction in Triton TX-100 forebrain extract: about 80%
APP51/16 transgenic mice; 24 h after the last dose
  C99 reduction in Triton TX-100 forebrain extract: 57%
  sAPPβ reduction in Triton TX-100 forebrain extract: 70%
APP51/16 transgenic mice; NB-360 group, Mean ± SEM, N 14
  Formic-acid extracted Aβ 1-38 in forebrain homogenate: 77.0 ± 24.9 pmol/g forebrain
  Formic-acid extracted Aβ 1-40 in forebrain homogenate: 197.3 ± 43.4 pmol/g forebrain
  Formic-acid extracted Aβ 1-42 in forebrain homogenate: 106.6 ± 20.9 pmol/g forebrain
APP51/16 transgenic mice; approximate area under the effect curve after last dose
  Plasma Aβ40 reduction, AUEC24h: 70%
APP51/16 transgenic mice; [5]
  CSF Aβ40 reduction, AUEC24h: approximately 75%
  CSF Aβ42 reduction, AUEC24h: approximately 75%
  CSF sAPPβ reduction, AUEC24h: approximately 75%
APP51/16 transgenic mice; forebrain extract, 4 and 24 h
  C83 average increase above vehicle control: 50%
  sAPPα average increase above vehicle control: 50%
APP51/16 transgenic mice; formic-acid extract
  Aβ 1-38, NB-360 group, change vs baseline: -33.5 % p = 0.39
  Aβ 1-38, NB-360 group, change vs vehicle: -68.0 % p = 0.015
  Aβ 1-40, NB-360 group, change vs baseline: -16.1 % p = 0.52
  Aβ 1-40, NB-360 group, change vs vehicle: -64.5 % p = 0.003
  Aβ 1-42, NB-360 group, change vs vehicle: -69.3 % p = 0.0006
APP51/16 transgenic mice; irrespective of the deposit size
  number of Aβ deposits (large plaques, small plaques, granules) per 3 cortical sections: indistinguishable from baseline
APP51/16 transgenic mice; mean ± SEM, p = 0.093 vs baseline, p <0.0001 vs vehicle
  total area of cortical region of interest stained positively for NT12: 0.209 ± 0.054%
APP51/16 transgenic mice; relative to vehicle-treated mice
  number of Iba-1 positive cell clusters in the cortex: substantially lower
[1]; C57BL6, mouse, blood, iv, 2 umol/kg
  clearance: 16 mL/min/kg
[1]; C57BL6, mouse, blood, po, 6 umol/kg
  bioavailability: 37%
[1]; mouse, 2 μmol/kg i.v.
  Terminal half-life after i.v. application: 3.6 h
  Vol. of Distribution: 4.6 L/kg
wtAPP CHO cells; read-out: IC50 Aβ40 release
  IC50: 3 nM
wtAPP CHO cells; read-out: IC50 Aβ42 release
  IC50: 3 nM
wtAPP CHO cells; read-out: IC50 sAPPβ release
  IC50: 4 nM
[2]; blood, corrected for nonspecific binding
  unbound AUC 0-24 h blood: 0.63 µM·h
[2]; brain, corrected for nonspecific binding
  unbound AUC 0-24 h brain: 0.54 µM·h
[2]; blood
  Cmax: 1620 nM
[2]; blood, read-out: AUC 0-24 h blood
  AUC(0-t): 10.2 µM·h
[2]; brain
  Cmax: 4010 nM
[2]; brain, read-out: AUC 0-24 h brain
  AUC(0-t): 23.6 µM·h
[3]
  pKa: 7.1
[4]; 2 μmol/kg i.v.
  Vol. of Distribution: 0.9 L/kg
[4]; Beagle, blood, iv, 2 umol/kg
  clearance: 0.4 mL/min/kg
  half-life: 2170 min
[4]; Beagle, blood, po, 2 umol/kg
  bioavailability: 62%
